Key:
ERα = biological target: T1, ERα (Homo sapiens, UniProt P03372); assay: ERα-specific U2OS reporter gene assay; format: cell-based
T1 sequence (P03372 1-595): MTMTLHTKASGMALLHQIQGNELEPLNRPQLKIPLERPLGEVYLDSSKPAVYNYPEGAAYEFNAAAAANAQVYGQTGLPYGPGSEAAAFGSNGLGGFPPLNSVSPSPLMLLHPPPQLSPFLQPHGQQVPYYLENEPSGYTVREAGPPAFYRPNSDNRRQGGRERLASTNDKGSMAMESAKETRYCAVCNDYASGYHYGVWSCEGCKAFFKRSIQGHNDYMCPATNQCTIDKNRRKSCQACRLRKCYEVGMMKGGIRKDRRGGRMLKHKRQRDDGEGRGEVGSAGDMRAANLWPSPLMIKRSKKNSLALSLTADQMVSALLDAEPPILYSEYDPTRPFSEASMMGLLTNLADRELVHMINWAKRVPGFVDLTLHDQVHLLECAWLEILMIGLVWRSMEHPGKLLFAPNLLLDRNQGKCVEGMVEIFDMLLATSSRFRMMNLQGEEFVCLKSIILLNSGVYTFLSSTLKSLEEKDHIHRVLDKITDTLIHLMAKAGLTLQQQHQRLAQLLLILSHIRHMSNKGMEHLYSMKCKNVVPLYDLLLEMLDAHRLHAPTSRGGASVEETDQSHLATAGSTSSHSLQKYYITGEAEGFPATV

ERβ = ERβ (Homo sapiens, UniProt Q92731); assay: ERβ-specific U2OS reporter gene assay; format: cell-based
FLAG-ERβ = format: cell-based, human; conditions: in the presence of 1000 ng tetracycline/ml, 24 h

ERβ, sequence (Q92731 whole entry): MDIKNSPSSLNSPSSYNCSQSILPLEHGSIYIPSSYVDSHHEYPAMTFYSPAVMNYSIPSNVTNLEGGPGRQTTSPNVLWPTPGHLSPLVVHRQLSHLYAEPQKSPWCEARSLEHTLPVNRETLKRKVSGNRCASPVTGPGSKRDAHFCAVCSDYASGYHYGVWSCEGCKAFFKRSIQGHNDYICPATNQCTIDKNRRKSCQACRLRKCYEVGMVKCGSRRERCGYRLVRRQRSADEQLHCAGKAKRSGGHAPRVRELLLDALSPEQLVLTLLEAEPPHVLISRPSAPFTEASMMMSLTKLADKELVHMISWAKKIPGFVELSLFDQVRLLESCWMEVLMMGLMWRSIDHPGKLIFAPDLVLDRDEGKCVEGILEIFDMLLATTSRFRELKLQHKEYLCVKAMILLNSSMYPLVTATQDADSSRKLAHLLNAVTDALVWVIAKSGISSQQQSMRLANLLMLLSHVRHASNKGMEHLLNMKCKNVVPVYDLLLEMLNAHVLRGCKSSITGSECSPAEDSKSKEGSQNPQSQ

CCCc1c(-c2ccc(O)cc2)nn(-c2ccc(O)cc2)c1-c1ccc(O)cc1 [PPT, 4,4′,4″-(4-propyl-[1H]pyrazole-1,3,5-triyl) Tris-phenol]
EC50 (ERα): 0.14 nM
Transcription of the reporter gene in the ERβ-U2OS-Luc cell line (ERβ): unable to induce any transcription

CN(C)[C@@H]1C(O)=C(C(N)=O)C(=O)[C@@]2(O)C(O)=C3C(=O)c4c(O)cccc4[C@@](C)(O)[C@H]3C[C@@H]12 [tetracycline, Tetracycline]
FLAG-ERβ protein expression (FLAG-ERβ): No detectable FLAG-ERβ protein

From paper PMC2527638 (Toxicological Sciences, 2008)
